From patent US7629341B2, “Human ADAM-10 inhibitors” (Symphony Evolution, Inc., priority 2003, dated 2009)

Tests used:
[1] = molecular target: TACE (TNF-alpha converting enzyme, ADAM-17) (Homo sapiens, UniProt P78536); assay: In vitro metalloprotease inhibition, TACE; format: biochemical
Excerpt: (§1) Blank cells indicate lack of data only.

MMP-3 (Stromelysin-1) = MMP-3 (Stromelysin-1) (Homo sapiens, UniProt P08254); assay: In vitro metalloprotease inhibition, MMP-3; format: biochemical
Excerpt: as §1

[2] = molecular target: T1, MMP-1 (Fibroblast collagenase) (Homo sapiens, UniProt P03956); assay: In vitro metalloprotease inhibition, MMP-1; format: biochemical
T1 sequence (P03956 100-469): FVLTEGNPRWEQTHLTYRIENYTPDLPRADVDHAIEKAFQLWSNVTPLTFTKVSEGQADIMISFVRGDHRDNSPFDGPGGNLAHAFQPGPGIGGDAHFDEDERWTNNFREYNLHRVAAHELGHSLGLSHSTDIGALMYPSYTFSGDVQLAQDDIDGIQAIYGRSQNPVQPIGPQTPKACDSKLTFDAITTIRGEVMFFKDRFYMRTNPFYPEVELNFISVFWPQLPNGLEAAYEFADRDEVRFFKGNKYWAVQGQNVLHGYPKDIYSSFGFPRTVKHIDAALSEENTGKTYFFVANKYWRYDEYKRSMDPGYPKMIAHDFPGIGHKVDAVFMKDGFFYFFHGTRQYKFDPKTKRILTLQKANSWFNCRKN
Excerpt: as §1

MMP-13 (collagenase-3) = MMP-13 (collagenase-3) (Homo sapiens, UniProt P45452); assay: In vitro metalloprotease inhibition, MMP-13; format: biochemical
[3] = molecular target: MMP-8 (Neutrophil collagenase) (Homo sapiens, UniProt P22894); assay: In vitro metalloprotease inhibition, MMP-8; format: biochemical
[4] = molecular target: MMP-9 (92 kDa gelatinase, gelatinase B) (Homo sapiens, UniProt P14780); assay: In vitro metalloprotease inhibition, MMP-9; format: biochemical
ADAM-10 = molecular target: T2, ADAM-10 (UniProt O14672); assay: ADAM-10 enzyme assay, cleavage of a fluorogenic 10-residue peptide; format: biochemical, mouse or human (mADAM-10 or hADAM-10); conditions: in vitro;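 note: mouse or human ADAM-10 at 5 nM active enzyme, pH 8.0 HEPES buffer with CaCl2 and NP-40, compounds titrated 100 µM down to 0.5 nM, fluorescence read after 16 h at room temperature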
T2 sequence (O14672 1-748): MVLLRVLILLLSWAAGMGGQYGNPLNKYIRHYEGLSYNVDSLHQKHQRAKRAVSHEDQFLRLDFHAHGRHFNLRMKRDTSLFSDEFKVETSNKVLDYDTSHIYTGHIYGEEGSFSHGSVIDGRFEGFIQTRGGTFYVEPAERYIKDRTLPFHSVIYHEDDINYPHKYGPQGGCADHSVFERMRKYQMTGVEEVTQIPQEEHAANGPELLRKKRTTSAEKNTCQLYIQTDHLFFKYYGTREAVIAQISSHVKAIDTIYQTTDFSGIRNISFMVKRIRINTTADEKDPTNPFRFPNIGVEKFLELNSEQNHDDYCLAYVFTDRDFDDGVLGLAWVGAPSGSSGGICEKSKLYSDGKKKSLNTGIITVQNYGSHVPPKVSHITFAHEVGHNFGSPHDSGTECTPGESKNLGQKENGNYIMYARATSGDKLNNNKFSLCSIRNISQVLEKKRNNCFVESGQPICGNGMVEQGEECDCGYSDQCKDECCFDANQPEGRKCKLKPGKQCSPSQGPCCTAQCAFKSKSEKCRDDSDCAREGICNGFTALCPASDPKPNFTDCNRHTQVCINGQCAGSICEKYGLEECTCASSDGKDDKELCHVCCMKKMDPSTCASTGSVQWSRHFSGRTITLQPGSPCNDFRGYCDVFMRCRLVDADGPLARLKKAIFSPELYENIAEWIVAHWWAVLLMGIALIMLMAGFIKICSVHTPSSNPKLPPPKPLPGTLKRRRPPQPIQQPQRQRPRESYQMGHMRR
Protocol: mADAM-10 or hADAM-10 activity was measured as the ability to cleave a 10-residue peptide (DABCYL-Leu-Leu-Ala-Gln-Lys-*-LeuArg-Ser-Ser-Arg-EDANS). […] Enzyme was diluted to a final active concentration of 5 nM in Buffer A (50 mM HEPES 8.0, 100 mM NaCl, 1 mM CaCl2 and 0.01% NP-40). Serial dilutions for compounds were performed ranging from 100 μM to 0.5 nM using a Beckman Biomek 2000 in polypropylene plates (Greiner). […] This reaction was incubated for 16 hr at RT and fluorescence was read using identical conditions.

[5] = molecular target: T3, MMP-2 (72 kDa gelatinase, gelatinase A) (Homo sapiens, UniProt P08253); assay: In vitro metalloprotease inhibition, MMP-2; format: biochemical
T3 sequence (P08253 110-660): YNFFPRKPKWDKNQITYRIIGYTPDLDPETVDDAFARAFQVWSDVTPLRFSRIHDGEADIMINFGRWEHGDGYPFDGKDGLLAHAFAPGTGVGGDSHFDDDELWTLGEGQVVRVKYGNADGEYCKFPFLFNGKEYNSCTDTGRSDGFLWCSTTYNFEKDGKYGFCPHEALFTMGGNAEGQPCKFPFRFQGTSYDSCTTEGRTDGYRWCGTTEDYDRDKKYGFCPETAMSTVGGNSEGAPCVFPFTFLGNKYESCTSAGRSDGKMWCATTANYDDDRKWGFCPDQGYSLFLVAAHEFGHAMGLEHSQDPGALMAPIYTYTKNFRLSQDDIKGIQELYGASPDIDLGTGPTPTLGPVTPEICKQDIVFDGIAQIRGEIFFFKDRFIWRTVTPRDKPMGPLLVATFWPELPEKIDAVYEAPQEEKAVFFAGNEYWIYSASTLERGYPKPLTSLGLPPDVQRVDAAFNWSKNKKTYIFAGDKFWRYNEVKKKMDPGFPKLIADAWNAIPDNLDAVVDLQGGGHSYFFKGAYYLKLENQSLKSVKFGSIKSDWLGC

MMP-3 (Stromelysin-1), sequence (P08254 100-477, species assumed): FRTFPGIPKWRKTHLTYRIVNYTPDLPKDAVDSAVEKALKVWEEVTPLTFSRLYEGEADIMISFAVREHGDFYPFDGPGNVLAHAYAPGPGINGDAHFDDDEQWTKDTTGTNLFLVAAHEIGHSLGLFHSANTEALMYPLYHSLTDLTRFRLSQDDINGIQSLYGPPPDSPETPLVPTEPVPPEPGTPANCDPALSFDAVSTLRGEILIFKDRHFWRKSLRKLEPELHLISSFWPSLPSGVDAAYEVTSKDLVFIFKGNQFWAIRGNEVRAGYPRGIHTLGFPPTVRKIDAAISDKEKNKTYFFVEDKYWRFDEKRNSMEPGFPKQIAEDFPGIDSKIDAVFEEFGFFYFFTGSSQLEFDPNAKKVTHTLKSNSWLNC
TACE (TNF-alpha converting enzyme, ADAM-17), sequence (P78536 215-824): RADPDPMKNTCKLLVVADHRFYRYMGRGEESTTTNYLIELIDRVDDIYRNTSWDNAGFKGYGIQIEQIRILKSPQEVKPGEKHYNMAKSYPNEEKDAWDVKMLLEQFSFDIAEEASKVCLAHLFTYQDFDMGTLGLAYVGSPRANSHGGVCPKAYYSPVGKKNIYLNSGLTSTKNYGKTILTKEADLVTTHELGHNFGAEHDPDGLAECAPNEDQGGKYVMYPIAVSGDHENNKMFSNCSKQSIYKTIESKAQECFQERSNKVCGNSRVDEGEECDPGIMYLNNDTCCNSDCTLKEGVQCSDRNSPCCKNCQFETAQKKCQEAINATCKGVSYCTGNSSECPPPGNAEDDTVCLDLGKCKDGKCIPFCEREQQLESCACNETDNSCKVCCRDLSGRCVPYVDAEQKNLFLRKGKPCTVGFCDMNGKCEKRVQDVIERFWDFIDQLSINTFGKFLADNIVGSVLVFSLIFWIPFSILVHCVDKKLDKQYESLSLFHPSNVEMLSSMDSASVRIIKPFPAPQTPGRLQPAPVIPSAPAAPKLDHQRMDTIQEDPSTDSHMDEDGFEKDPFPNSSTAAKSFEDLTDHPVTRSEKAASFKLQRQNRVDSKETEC
MMP-8 (Neutrophil collagenase), sequence (P22894 101-467, species assumed): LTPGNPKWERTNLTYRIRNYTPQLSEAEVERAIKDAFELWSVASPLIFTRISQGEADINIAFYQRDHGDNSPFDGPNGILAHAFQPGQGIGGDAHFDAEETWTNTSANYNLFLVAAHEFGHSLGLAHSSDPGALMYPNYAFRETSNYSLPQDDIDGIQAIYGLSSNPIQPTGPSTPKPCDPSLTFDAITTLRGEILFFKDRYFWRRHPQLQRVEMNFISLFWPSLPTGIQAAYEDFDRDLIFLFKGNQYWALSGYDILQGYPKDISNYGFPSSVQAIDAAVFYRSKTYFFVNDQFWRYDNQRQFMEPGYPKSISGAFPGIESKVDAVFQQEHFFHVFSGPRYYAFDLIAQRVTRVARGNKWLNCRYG
MMP-9 (92 kDa gelatinase, gelatinase B), sequence (P14780 94-707, species assumed): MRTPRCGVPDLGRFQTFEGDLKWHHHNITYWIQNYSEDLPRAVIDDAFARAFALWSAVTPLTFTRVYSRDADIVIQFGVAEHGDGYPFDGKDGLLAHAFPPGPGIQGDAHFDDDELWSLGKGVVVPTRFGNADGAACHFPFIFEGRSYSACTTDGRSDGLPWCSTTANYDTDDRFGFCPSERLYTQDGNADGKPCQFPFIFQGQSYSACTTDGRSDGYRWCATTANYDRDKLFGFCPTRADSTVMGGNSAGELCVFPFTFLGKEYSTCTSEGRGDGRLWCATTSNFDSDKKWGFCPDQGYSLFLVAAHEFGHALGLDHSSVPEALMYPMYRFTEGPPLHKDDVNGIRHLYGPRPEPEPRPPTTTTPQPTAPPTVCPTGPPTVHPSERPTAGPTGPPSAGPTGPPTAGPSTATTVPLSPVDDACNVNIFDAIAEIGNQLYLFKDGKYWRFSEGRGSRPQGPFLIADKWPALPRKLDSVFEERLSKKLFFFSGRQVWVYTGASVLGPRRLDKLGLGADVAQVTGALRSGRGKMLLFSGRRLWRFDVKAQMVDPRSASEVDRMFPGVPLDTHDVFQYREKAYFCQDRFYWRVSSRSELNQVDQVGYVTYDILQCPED

Row | IC50 [1] | IC50 (MMP-3 (Stromelysin-1)) | IC50 [2] | IC50 (MMP-13 (collagenase-3)) | IC50 [3] | IC50 [4] | IC50 (ADAM-10) | IC50 [5] | SMILES
1 | 50 to 1000 nM | 50 to 1000 nM | 1000 to 20000 nM |  |  |  |  |  | COCCOC(=O)N1CCN(S(=O)(=O)c2cc(F)c(Oc3ccc(Cl)cc3)c(F)c2)[C@@H](C(=O)NO)C1 [Entry 15]
2 | 50 to 1000 nM | 50 to 1000 nM | 1000 to 20000 nM | < 50 nM | < 50 nM | 50 to 1000 nM | < 50 nM | < 50 nM | O=C(NO)[C@H]1CN(C(=O)N2CCOCC2)CCN1S(=O)(=O)c1cc(F)c(Oc2ccc(Cl)cc2)c(F)c1 [Entry 30]
3 | 50 to 1000 nM | 50 to 1000 nM | 1000 to 20000 nM | < 50 nM |  |  | < 50 nM | < 50 nM | O=C(NO)[C@H]1CN(C(=O)C(=O)N2CCOCC2)CCN1S(=O)(=O)c1cc(F)c(Oc2ccc(Cl)cc2)c(F)c1 [Entry 31]
4 | < 50 nM | 50 to 1000 nM | 1000 to 20000 nM | < 50 nM |  |  | < 50 nM | < 50 nM | O=C(NO)[C@H]1CN(S(=O)(=O)Cc2ccncc2)CCN1S(=O)(=O)c1cc(F)c(Oc2ccc(Cl)cc2)c(F)c1 [Entry 34]
5 | 50 to 1000 nM | < 50 nM | 1000 to 20000 nM | < 50 nM |  |  | < 50 nM | < 50 nM | O=C(NO)[C@H]1CN(S(=O)(=O)NC(=O)N2CCCCC2)CCN1S(=O)(=O)c1cc(F)c(Oc2ccc(Cl)cc2)c(F)c1 [Entry 37]
6 | 50 to 1000 nM | < 50 nM | 1000 to 20000 nM | < 50 nM |  |  | < 50 nM | < 50 nM | O=C(NO)[C@H]1CN(S(=O)(=O)NC(=O)N2CCOCC2)CCN1S(=O)(=O)c1cc(F)c(Oc2ccc(Cl)cc2)c(F)c1 [Entry 38]
7 | 50 to 1000 nM | 50 to 1000 nM | 1000 to 20000 nM | < 50 nM |  |  | < 50 nM | < 50 nM | O=C(NO)[C@H]1CN(S(=O)(=O)c2cccnc2O)CCN1S(=O)(=O)c1cc(F)c(Oc2ccc(Cl)cc2)c(F)c1 [Entry 45]
8 | < 50 nM | < 50 nM | 50 to 1000 nM | < 50 nM |  |  | < 50 nM | < 50 nM | CN(C)CCS(=O)(=O)N1CCN(S(=O)(=O)c2cc(F)c(Oc3ccc(Cl)cc3)c(F)c2)[C@@H](C(=O)NO)C1 [Entry 54]
9 | 50 to 1000 nM | 50 to 1000 nM | 1000 to 20000 nM | < 50 nM |  |  | < 50 nM | < 50 nM | O=C(NO)[C@H]1CN(C(=O)c2cccnc2)CCN1S(=O)(=O)c1cc(F)c(Oc2ccc(Cl)cc2)c(F)c1 [Entry 59]
